Results as given in patent US11096961B2, “Pharmaceutical composition for suppressing spinal cord ischemic disorder” (SUMITOMO SEIKA CHEMICALS CO., LTD., priority 2019, dated 2021).

Assays:
[1] = test system: mouse transient spinal cord ischemia model; test: Measurement of spinal cord blood flow (SCBF) after release of blood flow interception; type: in vivo; details: inhalation of 5% carbon dioxide gas from cannulation until end of model creation; SCBF before interception = 100%; measured for 480 seconds after release of interception; compared with 100% oxygen control; FIG. 1
From the text: (§1) An 8 to 12-week-old male mouse was used for creating a mouse transient spinal cord ischemia model. The mouse was subjected to endotracheal intubation under anesthesia by the inhalation of isoflurane and cannulation for measuring blood pressure in the left femoral artery. The cervix and a part of the sternum were incised, and the left common carotid artery, the aortic arch, and the left subclavian artery were exposed. The blood flow was intercepted at the aortic arch and the left subclavian artery base using two vascular clips. The vascular clips were removed 4 minutes and 30 seconds after the blood flow interception, and the blood flow interception was released. […]
(§2) The inhalation of 5% carbon dioxide gas was started from the cannulation in the process of creating the mouse transient spine ischemia model, and the inhalation was continued until the end of the model creation. […] The spinal cord blood flow (SCBF) before the blood flow interception was defined as 100%, and the spinal cord blood flow was measured for 480 seconds after the blood flow interception was released. A known method (Basso et al., J Nurotrauma, 23(5): 635-59, 2006) was partially modified, and the motor functions were continuously evaluated by the Basso Mouse Scale (BMS) 24, 48 and 72 hours after spinal cord ischemia. […]

[2] = test system: mouse transient spinal cord ischemia model; test: Evaluation of motor function by Basso Mouse Scale (BMS) after spinal cord ischemia; type: in vivo; details: inhalation of 5% carbon dioxide gas, compared with 100% oxygen controls, FIGS. 2A-2B
From the text: as §1, §2

In the case of `O=C=O` [5% carbon dioxide gas, carbon dioxide], the “spinal cord blood flow (SCBF) in the ischemic state” value [1] is reported as “improved more rapidly”, the “decreases in the motor functions (Basso Mouse Scale)” value ([2]; BMS 24, 48 and 72 hours after spinal cord ischemia) is reported as “hardly observed” and the “onset of late-onset paraplegia” value ([2]; BMS=0 to 5 is paraplegia or death, 24, 48 and 72 hours after ischemia) is reported as “suppressed remarkably”.
